Laboratory results published in patent US8143411B2, “Substituted 6-phenylnicotinic acids and their use” (Bayer Animal Health GmbH, priority 2007, dated 2012).
Counter-ions that a name gives are not always drawn.

Each compound was assayed against T1, human PPARα receptor (Homo sapiens, UniProt Q07869) (assay: Cellular transactivation assay (GAL4-PPARα chimera, luciferase reporter)). Details: CHO cells stably expressing GAL4-PPARα chimera (human PPARα ligand binding domain) and luciferase reporter; 6 h stimulation.
T1 construct: expressed in transfected cells
T1 sequence (Q07869 167-468): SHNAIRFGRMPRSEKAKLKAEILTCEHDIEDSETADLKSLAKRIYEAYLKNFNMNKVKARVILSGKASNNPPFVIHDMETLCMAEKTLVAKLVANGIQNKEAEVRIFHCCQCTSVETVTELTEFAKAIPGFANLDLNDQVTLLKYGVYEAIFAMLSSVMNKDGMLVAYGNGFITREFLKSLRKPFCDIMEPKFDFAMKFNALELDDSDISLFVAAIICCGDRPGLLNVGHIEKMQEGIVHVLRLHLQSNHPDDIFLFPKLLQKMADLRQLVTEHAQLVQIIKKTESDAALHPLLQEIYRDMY
Format: cell-based
Source text: A cellular assay is used to identify activators of the peroxisome proliferator-activated receptor alpha (PPAR-alpha).
Since mammalian cells contain different endogenous nuclear receptors which may complicate an unambiguous interpretation of the results, an established chimera system is used in which the ligand binding domain of the human PPARα receptor is fused to the DNA binding domain of the yeast transcription factor GAL4. The resulting GAL4-PPARα chimera is co-transfected and stably expressed in CHO cells having a reporter construct.
The GAL4-PPARα expression construct contains the ligand binding domain of PPARα (amino acids 167-468) which is PCR-amplified and cloned into the vector pcDNA3.1. This vector already contains the GAL4 DNA binding domain (amino acids 1-147) of the vector pFC2-dbd (Stratagene). The reporter construct, which contains five copies of the GAL4 binding site upstream of a thymidine kinase promoter, expresses firefly luciferase (Photinus pyralis) following activation and binding of GAL4-PPARα.
The day before the test, CHO (Chinese hamster ovary) cells which stably express the GAL4-PPARα chimera described above and the luciferase reporter gene construct are plated in medium (Optimem, GIBCO), 2% activated carbon-purified fetal calf serum (Hyclone), 1.35 mM sodium pyruvate (GIBCO), 0.2% sodium bicarbonate (GIBCO) with 1×10^3 cells in 96-well microtiter plates and kept in a cell incubator (96% atmospheric humidity, 5% v/v CO2, 37° C.). On the day of the test, the substances to be tested are taken up in the medium mentioned above but without added calf serum) and added to the cells. After a stimulation period of 6 h, the luciferase activity is measured using a video camera. The relative light units measured give, as a function of the substance concentration, a sigmoidal stimulation curve. The EC50 values are calculated using the computer programme GraphPad PRISM (Version 3.02).
For `COCCN(C)c1nc(-c2ccc(C)c(F)c2)cc(C(F)(F)F)c1C(=O)O` [Example 47, 6-(3-Fluoro-4-methylphenyl)-2-[(2-methoxyethyl)(methyl)amino]-4-(trifluoromethyl)nicotinic acid hydrochloride], the EC50 was 180 nM. `O=C(O)c1c(C(F)(F)F)cc(-c2ccc(Cl)cc2)nc1NCC1CC1` [Example 22, 6-(4-Chlorophenyl)-2-[(cyclopropylmethyl)amino]-4-(trifluoromethyl)nicotinic acid] gave an EC50 of 100 nM. With `CC(C)CCOc1nc(-c2cc(F)cc(F)c2)cc(C(F)(F)F)c1C(=O)O` [Example 49, 6-(3,5-Difluorophenyl)-2-(3-methylbutoxy)-4-(trifluoromethyl)nicotinic acid] the EC50 was 42 nM. `CC(C)(C)CCOc1nc(-c2ccc(Br)cc2)cc(C(F)(F)F)c1C(=O)O` [Example 67, 6-(4-Bromophenyl)-2-(3,3-dimethylbutoxy)-4-(trifluoromethyl)nicotinic acid] gave an EC50 of 182 nM. Work on `CCc1nc(-c2ccc(Cl)cc2)cc(CC(C)C)c1C(=O)O` [Example 51, 6-(4-Chlorophenyl)-2-ethyl-4-isobutyl-nicotinic acid] yielded an EC50 of 24 nM. For `CC(C)Cc1nc(-c2ccc(Cl)cc2)cc(C(F)(F)F)c1C(=O)O` [Example 77, 6-(4-Chlorophenyl)-2-isobutyl-4-(trifluoromethyl)nicotinic acid sodium salt], the EC50 was 13 nM. With `CCOc1cc(-c2ccc(Cl)cc2)nc(C(C)C)c1C(=O)O` [Example 71, 6-(4-Chlorophenyl)-4-ethoxy-2-(1-methylethyl)nicotinic acid sodium salt] the EC50 was 86 nM. Compound `Cc1ccc(-c2cc(C(F)(F)F)c(C(=O)O)c(CC(C)C)n2)cc1F` [Example 2, 6-(3-Fluoro-4-methylphenyl)-2-isobutyl-4-(trifluoromethyl)nicotinic acid sodium salt] has an EC50 of 11 nM. For `Cc1ccc(-c2cc(C(F)(F)F)c(C(=O)O)c(NC(C)C)n2)cc1F` [Example 7, 6-(3-Fluoro-4-methylphenyl)-2-(isopropylamino)-4-(trifluoromethyl)nicotinic acid], the EC50 was 83 nM. Compound `Cc1ccc(-c2cc(C(F)(F)F)c(C(=O)O)c(OC(C)C3CCCCC3)n2)cc1F` (centres unmarked) [Example 42, 2-(1-Cyclohexylethoxy)-6-(3-fluoro-4-methylphenyl)-4-(trifluoromethyl)nicotinic acid] has an EC50 of 120 nM. In the case of `CCOc1nc(-c2ccc(C)c(F)c2)cc(C(F)(F)F)c1C(=O)O` [Example 34, 2-Ethoxy-6-(3-fluoro-4-methylphenyl)-4-(trifluoromethyl)nicotinic acid], the EC50 is reported as 95 nM.
